Experimental data from ChEMBL document CHEMBL3864167, “Structure-Activity Relationship, Drug Metabolism and Pharmacokinetics Properties Optimization, and in Vivo Studies of New Brain Penetrant Triple T-Type Calcium Channel Blockers” (J Med Chem, 2016).
In brackets after ≈: the same amount, converted by molar mass.

Key:
[1] = target: Voltage-dependent T-type calcium channel subunit alpha-1I (Homo sapiens, UniProt Q9P0X4); test: Channel blocking activity at recombinant human CaV 3.3 channel expressed in HEK293 cells assessed as inhibition of Ca2+ flux preincubated for 3 mins followed by CaCl2 addition by fluo-4 dye-based FLIPR assay; assay type: cell-based
[2] = target: Cytochrome P450 3A4 (Homo sapiens, UniProt P08684); test: Inhibition of CYP3A4 (unknown origin); assay type: ADME
[3] = target: Voltage-dependent T-type calcium channel subunit alpha-1H (Homo sapiens, UniProt O95180); test: Channel blocking activity at recombinant human CaV 3.2 channel expressed in HEK293 cells assessed as inhibition of Ca2+ flux preincubated for 3 mins followed by CaCl2 addition by fluo-4 dye-based FLIPR assay; assay type: cell-based
Chain of Voltage-dependent T-type calcium channel subunit alpha-1H (O95180 whole entry): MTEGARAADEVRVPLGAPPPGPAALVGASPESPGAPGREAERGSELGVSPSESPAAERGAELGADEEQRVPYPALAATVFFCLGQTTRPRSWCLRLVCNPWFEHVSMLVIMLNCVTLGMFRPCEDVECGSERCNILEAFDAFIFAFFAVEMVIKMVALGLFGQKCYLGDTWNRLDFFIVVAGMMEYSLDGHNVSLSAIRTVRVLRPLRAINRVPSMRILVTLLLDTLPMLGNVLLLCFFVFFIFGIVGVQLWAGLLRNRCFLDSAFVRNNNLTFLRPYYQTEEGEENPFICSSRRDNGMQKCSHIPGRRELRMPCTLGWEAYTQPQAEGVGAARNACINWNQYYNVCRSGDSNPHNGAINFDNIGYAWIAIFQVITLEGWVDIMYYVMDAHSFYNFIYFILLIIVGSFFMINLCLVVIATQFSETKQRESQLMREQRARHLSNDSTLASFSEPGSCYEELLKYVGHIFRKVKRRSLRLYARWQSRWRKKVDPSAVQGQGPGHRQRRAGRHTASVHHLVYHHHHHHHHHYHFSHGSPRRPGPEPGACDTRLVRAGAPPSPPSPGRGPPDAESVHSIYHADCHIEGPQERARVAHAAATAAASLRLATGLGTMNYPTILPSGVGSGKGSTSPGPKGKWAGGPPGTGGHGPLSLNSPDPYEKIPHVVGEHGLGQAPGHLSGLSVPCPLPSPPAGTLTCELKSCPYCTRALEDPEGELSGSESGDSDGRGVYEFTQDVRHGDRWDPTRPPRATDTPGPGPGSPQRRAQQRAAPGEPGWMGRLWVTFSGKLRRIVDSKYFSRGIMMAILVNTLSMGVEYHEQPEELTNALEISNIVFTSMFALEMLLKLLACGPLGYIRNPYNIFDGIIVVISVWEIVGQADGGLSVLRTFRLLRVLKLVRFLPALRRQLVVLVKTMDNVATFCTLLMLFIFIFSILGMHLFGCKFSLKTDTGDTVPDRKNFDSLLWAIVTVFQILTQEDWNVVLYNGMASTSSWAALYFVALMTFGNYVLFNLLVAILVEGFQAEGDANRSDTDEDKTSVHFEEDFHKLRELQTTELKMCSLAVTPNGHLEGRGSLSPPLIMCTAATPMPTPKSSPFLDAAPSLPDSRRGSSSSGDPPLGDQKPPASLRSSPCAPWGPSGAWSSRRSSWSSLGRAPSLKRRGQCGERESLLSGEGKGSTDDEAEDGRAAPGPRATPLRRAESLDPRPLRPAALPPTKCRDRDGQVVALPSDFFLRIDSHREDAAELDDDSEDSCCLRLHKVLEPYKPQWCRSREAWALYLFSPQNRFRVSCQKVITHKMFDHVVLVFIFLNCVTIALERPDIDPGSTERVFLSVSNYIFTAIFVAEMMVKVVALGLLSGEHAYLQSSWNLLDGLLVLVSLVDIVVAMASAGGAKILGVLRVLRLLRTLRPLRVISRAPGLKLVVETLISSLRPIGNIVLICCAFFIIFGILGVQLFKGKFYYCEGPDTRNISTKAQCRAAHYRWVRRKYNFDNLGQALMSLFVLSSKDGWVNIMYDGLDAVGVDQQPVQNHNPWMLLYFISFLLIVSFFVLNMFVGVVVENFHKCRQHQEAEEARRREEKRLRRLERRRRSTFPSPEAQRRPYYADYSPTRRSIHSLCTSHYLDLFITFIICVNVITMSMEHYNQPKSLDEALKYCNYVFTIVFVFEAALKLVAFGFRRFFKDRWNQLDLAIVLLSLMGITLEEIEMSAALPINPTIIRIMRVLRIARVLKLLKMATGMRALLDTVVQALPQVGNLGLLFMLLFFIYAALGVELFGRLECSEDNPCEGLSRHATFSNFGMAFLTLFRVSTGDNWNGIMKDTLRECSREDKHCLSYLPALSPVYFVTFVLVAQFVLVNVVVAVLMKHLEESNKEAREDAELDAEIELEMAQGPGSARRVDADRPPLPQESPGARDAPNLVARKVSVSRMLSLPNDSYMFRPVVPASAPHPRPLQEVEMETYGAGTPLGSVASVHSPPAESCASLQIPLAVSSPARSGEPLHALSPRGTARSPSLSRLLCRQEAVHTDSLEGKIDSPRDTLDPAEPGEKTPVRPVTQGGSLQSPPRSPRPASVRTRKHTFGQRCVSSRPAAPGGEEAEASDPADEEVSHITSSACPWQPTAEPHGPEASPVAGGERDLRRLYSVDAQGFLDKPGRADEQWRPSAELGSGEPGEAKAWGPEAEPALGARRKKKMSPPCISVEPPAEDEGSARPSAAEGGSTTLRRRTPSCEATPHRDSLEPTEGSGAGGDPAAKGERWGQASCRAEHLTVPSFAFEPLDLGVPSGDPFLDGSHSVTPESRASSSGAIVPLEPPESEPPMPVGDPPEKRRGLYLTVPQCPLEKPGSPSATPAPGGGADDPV

[4] = target: Voltage-dependent T-type calcium channel subunit alpha-1G (Homo sapiens, UniProt O43497); test: Channel blocking activity at recombinant human CaV 3.1 channel expressed in HEK293 cells assessed as inhibition of Ca2+ flux preincubated for 3 mins followed by CaCl2 addition by fluo-4 dye-based FLIPR assay; assay type: cell-based
Chain of Voltage-dependent T-type calcium channel subunit alpha-1G (O43497 whole entry): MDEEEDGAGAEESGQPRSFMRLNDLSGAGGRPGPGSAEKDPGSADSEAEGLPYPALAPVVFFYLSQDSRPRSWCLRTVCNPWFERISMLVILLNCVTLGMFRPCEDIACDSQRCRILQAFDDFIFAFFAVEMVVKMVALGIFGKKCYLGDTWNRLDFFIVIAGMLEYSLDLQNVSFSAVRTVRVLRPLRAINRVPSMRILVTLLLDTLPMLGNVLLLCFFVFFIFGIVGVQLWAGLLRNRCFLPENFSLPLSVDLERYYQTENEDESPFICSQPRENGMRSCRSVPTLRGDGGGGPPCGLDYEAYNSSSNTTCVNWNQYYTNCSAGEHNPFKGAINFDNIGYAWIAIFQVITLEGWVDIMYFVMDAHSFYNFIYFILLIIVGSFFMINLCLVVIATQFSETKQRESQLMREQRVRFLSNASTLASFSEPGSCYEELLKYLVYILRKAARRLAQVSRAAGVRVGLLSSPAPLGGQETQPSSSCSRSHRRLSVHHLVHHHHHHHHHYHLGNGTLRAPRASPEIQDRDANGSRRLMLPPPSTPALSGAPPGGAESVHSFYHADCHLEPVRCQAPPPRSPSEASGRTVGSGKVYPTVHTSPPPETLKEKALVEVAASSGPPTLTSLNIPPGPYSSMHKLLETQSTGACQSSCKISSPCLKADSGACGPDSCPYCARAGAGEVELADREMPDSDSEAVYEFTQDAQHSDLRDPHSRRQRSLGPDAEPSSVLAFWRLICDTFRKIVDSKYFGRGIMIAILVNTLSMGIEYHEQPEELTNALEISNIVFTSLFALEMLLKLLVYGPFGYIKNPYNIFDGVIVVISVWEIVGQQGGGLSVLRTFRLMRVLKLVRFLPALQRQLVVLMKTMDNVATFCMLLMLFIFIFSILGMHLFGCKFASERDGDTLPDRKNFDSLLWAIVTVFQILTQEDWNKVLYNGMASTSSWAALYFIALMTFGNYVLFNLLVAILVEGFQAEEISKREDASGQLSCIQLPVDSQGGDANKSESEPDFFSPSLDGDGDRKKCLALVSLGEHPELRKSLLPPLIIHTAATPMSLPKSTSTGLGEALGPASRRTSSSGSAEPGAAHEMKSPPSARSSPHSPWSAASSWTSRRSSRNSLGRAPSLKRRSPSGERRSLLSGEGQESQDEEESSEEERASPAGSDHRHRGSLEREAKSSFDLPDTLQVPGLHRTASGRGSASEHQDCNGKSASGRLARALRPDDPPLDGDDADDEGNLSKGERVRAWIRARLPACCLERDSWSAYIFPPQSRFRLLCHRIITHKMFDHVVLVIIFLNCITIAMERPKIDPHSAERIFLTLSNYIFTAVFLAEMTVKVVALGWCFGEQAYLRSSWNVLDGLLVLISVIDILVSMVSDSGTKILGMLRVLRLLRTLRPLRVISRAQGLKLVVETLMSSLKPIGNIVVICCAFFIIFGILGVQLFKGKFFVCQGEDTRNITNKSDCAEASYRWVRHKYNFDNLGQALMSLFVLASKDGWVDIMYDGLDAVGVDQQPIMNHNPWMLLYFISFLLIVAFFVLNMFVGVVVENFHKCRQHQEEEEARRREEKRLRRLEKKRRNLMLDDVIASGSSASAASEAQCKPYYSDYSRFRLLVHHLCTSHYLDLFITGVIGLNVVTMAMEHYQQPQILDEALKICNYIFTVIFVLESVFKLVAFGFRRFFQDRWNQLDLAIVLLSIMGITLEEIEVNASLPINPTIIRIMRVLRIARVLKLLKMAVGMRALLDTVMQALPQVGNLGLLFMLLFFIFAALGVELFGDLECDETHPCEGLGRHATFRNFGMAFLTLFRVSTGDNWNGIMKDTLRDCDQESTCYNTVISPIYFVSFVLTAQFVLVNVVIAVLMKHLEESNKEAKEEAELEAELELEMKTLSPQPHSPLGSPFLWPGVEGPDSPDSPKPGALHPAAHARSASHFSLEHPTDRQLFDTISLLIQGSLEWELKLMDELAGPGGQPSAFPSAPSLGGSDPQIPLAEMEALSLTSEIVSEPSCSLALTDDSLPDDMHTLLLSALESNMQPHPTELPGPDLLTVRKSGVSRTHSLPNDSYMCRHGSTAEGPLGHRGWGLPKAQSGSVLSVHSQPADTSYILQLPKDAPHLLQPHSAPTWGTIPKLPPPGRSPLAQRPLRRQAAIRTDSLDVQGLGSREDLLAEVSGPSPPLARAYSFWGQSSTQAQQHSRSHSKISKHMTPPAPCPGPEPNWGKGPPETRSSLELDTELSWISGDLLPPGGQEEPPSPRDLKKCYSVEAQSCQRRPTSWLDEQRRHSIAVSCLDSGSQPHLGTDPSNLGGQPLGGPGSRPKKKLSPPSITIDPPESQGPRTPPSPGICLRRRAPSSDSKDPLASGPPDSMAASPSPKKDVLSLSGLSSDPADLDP

[5] = system: Rattus norvegicus; test: Toxicity in WAG/Rij rat model of generalized nonconvulsive absence like epilepsy at 100 mg/kg, po administered as single dose; assay type: organism-based; settings: in vivo
[6] = Antiepileptic activity in WAG/Rij rat model of generalized nonconvulsive absence like epilepsy implanted with telemetric transmitter assessed as reduction in cumulated duration of seizures at 100 mg/kg, po administered as single dose at nocturnal active phase measured after 12 hrs by […] analysis; assay type: functional, organism-based; set-up: scale not given: the % may be the effect or the level left
[7] = (§1) Antiepileptic activity in WAG/Rij rat model of generalized nonconvulsive absence like epilepsy implanted with telemetric transmitter assessed as reduction in number of seizures at 100 mg/kg, po administered as single dose at nocturnal active phase measured after 3 hrs by […] analysis; assay type: functional, organism-based; set-up: scale not given: the % may be the effect or the level left
[8] = as §1, with “12” for “3”, “analysis relative to control” for “analysis”; assay type: functional, organism-based; set-up: scale not given: the % may be the effect or the level left
[9] = Unbound brain concentration in Wistar rat at 100 mg/kg, po after 1 hr by LC-MS/MS analysis; assay type: ADME, organism-based; settings: in vivo
[10] = Ratio of unbound brain concentration in Wistar rat to IC50 for recombinant human CaV 3.2 channel expressed in HEK293 cells; assay type: ADME, cell-based
[11] = system: MDR1; test: Apparent permeability from apical side to basolateral side in MDCK1 cells expressing MDR1; assay type: ADME, cell-based, Canis lupus familiaris; settings: dog, MDCK-MDR1
[12] = Dissociation constant, pKa of compound; assay type: physicochemical
[13] = Ratio of unbound brain concentration to unbound plasma concentration in Wistar rat at 100 mg/kg, po after 1 hr by LC-MS/MS analysis; assay type: ADME, organism-based
[14] = Drug uptake in Wistar rat plasma at 100 mg/kg, po after 1 hr by LC-MS/MS analysis; assay type: ADME, organism-based
[15] = Drug uptake in Wistar rat brain at 100 mg/kg, po after 1 hr by LC-MS/MS analysis; assay type: ADME, organism-based; settings: read-out: Drug uptake
[16] = system: MDR1; test: Efflux ratio for apparent permeability in MDCK1 cells expressing MDR1; assay type: ADME, cell-based, Canis lupus familiaris; settings: dog, MDCK-MDR1
[17] = Fraction unbound in Wistar rat brain at 100 mg/kg, po after 1 hr by LC-MS/MS analysis; assay type: ADME, organism-based
[18] = Tmax in Wistar rat at 100 mg/kg administered through oral gavage by LC-MS-MS analysis; assay type: ADME, organism-based; settings: in vivo
[19] = Cmax in Wistar rat at 100 mg/kg administered through oral gavage up to 24 hrs by LC-MS-MS analysis; assay type: ADME, organism-based; set-up: dose 100 mg/kg, route oral; settings: in vivo
[20] = Intrinsic clearance in human liver microsomes at 1 uM up to 15 mins in presence of NADPH by LC-MS-MS analysis; assay type: ADME; settings: read-out: CLH
[21] = Drug uptake in Wistar rat cerebrospinal fluid at 100 mg/kg, po after 1 hr by LC-MS/MS analysis; assay type: ADME, organism-based; settings: read-out: Drug uptake
[22] = Solubility of the compound in fed state simulated intestinal fluid; assay type: ADME; settings: fed state simulated intestinal fluid (FeSSIF)
[23] = Ratio of unbound brain concentration in Wistar rat to IC50 for recombinant human CaV 3.1 channel expressed in HEK293 cells; assay type: ADME, cell-based
[24] = Ratio of drug level in brain to plasma in Wistar rat at 100 mg/kg, po after 1 hr by LC-MS/MS analysis; assay type: ADME, organism-based
[25] = Solubility of the compound at pH 7; assay type: physicochemical; settings: buffer
[26] = AUC in Wistar rat at 100 mg/kg administered through oral gavage up to 24 hrs by LC-MS-MS analysis; assay type: ADME, organism-based; set-up: dose 100 mg/kg, time < 24 hr, route oral; settings: in vivo
[27] = Fraction unbound in Wistar rat plasma at 100 mg/kg, po after 1 hr by LC-MS/MS analysis; assay type: ADME, organism-based
[28] = Unbound plasma concentration in Wistar rat at 100 mg/kg, po after 1 hr by LC-MS/MS analysis; assay type: ADME, organism-based; settings: in vivo
[29] = Lipophilicity, logD of compund at pH 7.4; assay type: physicochemical; settings: buffer
[30] = Ratio of unbound brain concentration in Wistar rat to IC50 for recombinant human CaV 3.3 channel expressed in HEK293 cells; assay type: ADME, cell-based
[31] = Solubility of the compound in fast state simulated intestinal fluid; assay type: ADME; settings: fasted state simulated intestinal fluid (FaSSIF)
[32] = system: MDR1; test: Apparent permeability from basolateral side to apical side in MDCK1 cells expressing MDR1; assay type: ADME, cell-based, Canis lupus familiaris; settings: dog, MDCK-MDR1
[33] = Intrinsic clearance in Wistar rat liver microsomes at 1 uM up to 15 mins in presence of NADPH by LC-MS-MS analysis; assay type: ADME; settings: read-out: CLH
[34] = Drug level in human liver microsomes treated with (+/-)-1-((3R,5S)-1-benzyl-3,5-dimethyl-2,3-dihydro-1H-benzo[e][1,4]diazepin-4(5H)-yl)-3-methoxypropan-1-one at 10 uM after 30 mins by LC-MS/MS analysis; assay type: ADME; settings: 0.5 h
[35] = Drug metabolism in human liver microsomes assessed as (+/-)-1-((3R,5S)-3,5-dimethyl-2,3-dihydro-1H-benzo[e][1,4]diazepin-4(5H)-yl)-3-methoxypropan-1-one metabolite formation at 10 uM after 30 mins by LC-MS/MS analysis; assay type: ADME; settings: 0.5 h

C[C@@H]1CN(Cc2ccccc2)c2cnccc2[C@H](C)N1C(=O)NCc1ccccc1 [listing 1 of 2 here]
IC50 [1]: 0.011 µM | IC50 [2]: 0.023 to 0.031 µM | IC50 [3]: 0.102 µM | IC50 [4]: 0.138 µM | Activity [5]: Non-Toxic

C[C@@H]1CN(Cc2ccccc2)c2cnccc2[C@H](C)N1C(=O)NCc1ccccc1 [listing 2 of 2 here]
Activity [6]: 50% | Activity [7]: 100% | Activity [8]: 50%

C[C@@H]1CN(Cc2ccccc2)c2cnccc2[C@H](C)N1C(=O)NCc1ccccc1 (racemic)
IC50 [1]: 0.025 µM | Drug uptake(free) [9]: 35 nM | Ratio [10]: 0.15 | Papp A→B [11]: 16.6 ×10⁻⁶ cm/s | pKa [12]: 6.2 | BPR [13]: 27% | concentration at 1 h [14]: 6780 nM | concentration at 1 h [15]: 1600 nM | efflux ratio [16]: 3.4 | fraction unbound at 1 h [17]: 0.022 | Tmax [18]: 30 min | Cmax [19]: 5440 ng/mL | microsomal CLint at 1 µM [20]: 276 µL/min/mg | IC50 [3]: 0.236 µM | concentration at 1 h [21]: 494 nM | solubility [22]: 318 µg/mL (≈ 794 µM) | Ratio [23]: 0.25 | IC50 [4]: 0.142 µM | BPR [24]: 24% | solubility [25]: 42 µg/mL (≈ 105 µM) | AUC at 24 h [26]: 21800 ng·h/mL | fraction unbound at 1 h [27]: 0.019 | Cp(f) [28]: 128 nM | logD [29]: 3.1 | Ratio [30]: 1.5 | solubility [31]: 89 µg/mL (≈ 222 µM) | Papp B→A [32]: 55.8 ×10⁻⁶ cm/s

C[C@@H]1CN(Cc2ccccc2)c2cncc(F)c2[C@H](C)N1C(=O)Nc1cccnc1 (racemic)
IC50 [1]: 0.133 µM | Papp A→B [11]: 0.9 ×10⁻⁶ cm/s | pKa [12]: 3.8 to 4.7 | efflux ratio [16]: 60 | microsomal CLint at 1 µM [20]: 83 µL/min/mg | IC50 [3]: 0.24 µM | IC50 [4]: 0.107 µM | solubility [25]: 177 µg/mL (≈ 437 µM) | logD [29]: 3.3 | Papp B→A [32]: 53.8 ×10⁻⁶ cm/s | microsomal CLint at 1 µM [33]: 500 µL/min/mg

COc1ccc(CNC(=O)N2[C@H](C)CN(CCC(C)C)c3cnccc3[C@@H]2C)cc1 (racemic)
IC50 [1]: 0.025 µM | Papp A→B [11]: 10.6 ×10⁻⁶ cm/s | pKa [12]: 6.4 | efflux ratio [16]: 5.1 | microsomal CLint at 1 µM [20]: 94 µL/min/mg | IC50 [3]: 0.055 µM | IC50 [4]: 0.076 µM | solubility [25]: 9 µg/mL (≈ 21.9 µM) | logD [29]: 4 | Papp B→A [32]: 54.5 ×10⁻⁶ cm/s | microsomal CLint at 1 µM [33]: 885 µL/min/mg

C[C@@H]1CN(Cc2ccccc2)c2ccccc2[C@H](C)N1C(=O)NCc1ccccc1 (racemic)
IC50 [1]: 0.008 µM | microsomal CLint at 1 µM [20]: > 1250 µL/min/mg | IC50 [3]: 0.035 µM | solubility [22]: 20 µg/mL (≈ 50.1 µM) | IC50 [4]: 0.017 µM | solubility [25]: < 1 µg/mL | logD [29]: > 4.1 | solubility [31]: 6 µg/mL (≈ 15 µM) | microsomal CLint at 1 µM [33]: > 1250 µL/min/mg

COCCC(=O)N1[C@H](C)CNc2ccccc2[C@@H]1C (racemic)
Drug metabolism [34]: Metabolite_Detected

CC(C)CCN1C[C@@H](C)N(C(=O)Nc2cccnc2)[C@@H](C)c2ccncc21 (racemic)
IC50 [1]: 0.251 µM | Papp A→B [11]: 0.4 ×10⁻⁶ cm/s | pKa [12]: 4.4 to 6.3 | efflux ratio [16]: 140 | microsomal CLint at 1 µM [20]: 30 µL/min/mg | IC50 [3]: 0.604 µM | IC50 [4]: 0.613 µM | solubility [25]: 309 µg/mL (≈ 841 µM) | logD [29]: 3.2 | Papp B→A [32]: 56 ×10⁻⁶ cm/s | microsomal CLint at 1 µM [33]: 496 µL/min/mg

COCCC(=O)N1[C@H](C)CN(Cc2ccccc2)c2ccccc2[C@@H]1C (racemic)
microsomal CLint at 1 µM [20]: > 1250 µL/min/mg | Drug metabolism [35]: Metabolite_Detected | solubility [22]: 195 µg/mL (≈ 553 µM) | solubility [25]: 27 µg/mL (≈ 76.6 µM) | solubility [31]: 58 µg/mL (≈ 165 µM) | microsomal CLint at 1 µM [33]: > 1250 µL/min/mg
